According to patent publication US8481576B2 (Abbott GmbH & Co. KG, priority 2004, dated 2013):
Counter-ions that a name gives are not always drawn.

biological target: T1, h5-HT5A receptor (Homo sapiens, UniProt P47898); assay: [3H]5-CT binding assay h5-HT5A; conditions: membranes from HEK293 cells expressing h5-HT5A, 2.5 nM [3H]5-CT; read-out: Binding affinity 5-HT5A (Ki)
T1 construct: expressed in transfected cells; host or cells: HEK293
Description: 1. [^3H]5-CT binding assay h5-HT5A
Membranes from HEK293-cells, which permanently express the h5-HT5A receptor gene, were incubated in 100 mM Tris-HCl-buffer (pH 7.7), containing 1 mM EDTA in the presence of 2.5 nM [^3H]5-CT (600 μl total volume). The total binding is defined as the binding which is observed when the membranes are incubated alone in the presence of the radioligand. The inhibition induced by the compound is determined by incubation of cell membranes in the presence of the radioligand, and of different concentrations of the compound of interest. Unspecific binding is defined by the binding of [^3H]5-CT, which is obtained by incubation of the membranes as for the total binding but in the presence of 10 μM methiothepine. Following an incubation of 75 minutes at 30° C. the membrane suspension is filtered through GF/B-filters, wrapped in 0.03% PEI, wherein a Skatron® harvest system is used. The radioactivity retained in the filter is quantified by liquid scintillation counting.
In both assays, different concentrations of the test substances are used, and the Ki or the IC50 values are determined.

T1 sequence (P47898 whole entry): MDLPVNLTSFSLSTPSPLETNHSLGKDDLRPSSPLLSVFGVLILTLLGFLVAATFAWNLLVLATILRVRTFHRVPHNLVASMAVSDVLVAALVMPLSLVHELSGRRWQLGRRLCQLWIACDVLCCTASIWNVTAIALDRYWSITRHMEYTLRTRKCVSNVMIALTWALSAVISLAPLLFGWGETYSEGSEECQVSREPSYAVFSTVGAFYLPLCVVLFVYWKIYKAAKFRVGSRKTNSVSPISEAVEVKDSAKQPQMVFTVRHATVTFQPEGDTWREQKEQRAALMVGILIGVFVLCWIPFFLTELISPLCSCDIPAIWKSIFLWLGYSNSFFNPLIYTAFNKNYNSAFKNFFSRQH

`COc1cccc(OC)c1CNC(=N)Nc1nc(-c2ccc(C(F)(F)F)cc2)cs1` [Example 107, N-(2,6-dimethoxybenzyl)-N′-{4-[4-(trifluoromethyl)phenyl]-1,3-thiazole-2-yl}guanidine] and `COc1cccc(OC)c1CNC(=N)Nc1nc(-c2ccc(OC(F)F)cc2)cs1` [Example 109, N-{4-[4-(difluoromethoxy)phenyl]-1,3-thiazole-2-yl}-N′-(2,6-dimethoxybenzyl)guanidine hydrobromide] fall in the same range of Ki: 50 to 500 nM for the first, 50 to 500 nM for the second.

`COc1cccc(OC)c1CNC(=N)Nc1nc(CNC(=O)c2ccccc2)cs1` [Example 155, N-[(2-{[[(2,6-dimethoxybenzyl)amino](imino)methyl]amino}-1,3-thiazole-4-yl)methyl]benzamide] and `COc1cccc(OC)c1CNC(=N)Nc1nc(-c2cc3ccccc3o2)cs1` [Example 67, N-[4-(1-benzofuran-2-yl)-1,3-thiazole-2-yl]-N′-(2,6-dimethoxybenzyl)guanidine hydrobromide] cannot be ordered by Ki: less than 50 nM for the first, less than 50 nM for the second.

Going from `COc1cccc(OC)c1CNC(=N)Nc1nc(-c2ccccc2)co1` [Example 199, N-(2,6-dimethoxybenzyl)-N′-(4-phenyl-1,3-oxazole-2-yl)guanidine] to `COc1cccc(OC)c1CNC(=N)Nc1n[nH]cc1-c1ccccc1` [Example 218, N-(2,6-dimethoxybenzyl)-N′-(4-phenyl-1H-pyrazole-3-yl)guanidine], the Ki rises from less than 50 nM to greater than 500 nM.

`COc1cccc(OC)c1CNC(=N)Nc1cc[nH]n1` [Example 203, N-(2,6-dimethoxybenzyl)-N′-1H-pyrazole-3-ylguanidine] and `COc1cccc(OC)c1CNC(=N)Nc1ncc[nH]1` [Example 177, N-(2,6-dimethoxybenzyl)-N′-1H-imidazole-2-ylguanidine acetate] cannot be ordered by Ki: less than 50 nM for the first, less than 50 nM for the second.

`COc1ccc(-c2cc(NC(=N)NCc3ccccc3OC)n[nH]2)cc1` [Example 208, N-(2-methoxybenzyl)-N′-[5-(4-methoxyphenyl)-1H-pyrazole-3-yl]guanidine] and `COc1ccc(-c2cc(NC(=N)NCc3c(OC)cccc3OC)n[nH]2)cc1` [Example 209, N-(2,6-dimethoxybenzyl)-N′-[5-(4-methoxyphenyl)-1H-pyrazole-3-yl]guanidine] cannot be ordered by Ki: less than 50 nM for the first, less than 50 nM for the second.

First: COc1ccccc1CNC(=N)Nc1n[nH]c2ccccc12 [Example 179, N-1H-indazole-3-yl-N′-(2-methoxybenzyl)guanidine acetate]
Second: COc1ccccc1CNC(=N)Nc1nc2ccccc2s1 [Example 28, N-1,3-benzothiazole-2-yl-N′-(2-methoxybenzyl)guanidine (2E)-But-2-endioate]
The Ki of the first is lower: less than 50 nM for the first, 50 to 500 nM for the second.

`COc1cccc(OC)c1CNC(=N)Nc1nc2c(s1)CCc1ccccc1-2` [Example 127, N-(4,5-dihydronaphtho[1,2-d][1,3]thiazole-2-yl)-N′-(2,6-dimethoxybenzyl)guanidine] and `COc1cccc(OC)c1CNC(=N)Nc1nc(-c2ccc(F)cc2)c(C)s1` [Example 118, N-(2,6-dimethoxybenzyl)-N′-[4-(4-fluorophenyl)-5-methyl-1,3-thiazole-2-yl]guanidine] cannot be ordered by Ki: less than 50 nM for the first, less than 50 nM for the second.

First: COc1cccc(OC)c1CNC(=N)Nc1nc(C(F)(F)F)cs1 [Example 53, N-(2,6-dimethoxybenzyl)-N′-[4-(trifluoromethyl)-1,3-thiazole-2-yl]guanidine]
Second: COc1cccc(OC)c1CNC(=N)Nc1ncc(C)s1 [Example 55, N-(2,6-dimethoxybenzyl)-N′-(5-methyl-1,3-thiazole-2-yl)guanidine]
The Ki of the first is higher: 50 to 500 nM for the first, less than 50 nM for the second. The second binds more tightly here.

`COc1cccc(OC)c1CNC(=N)Nc1nc(-c2ccc(F)cc2OCCN2CCOCC2)cs1` [Example 153, N-(2,6-dimethoxybenzyl)-N′-{4-[4-fluoro-2-(2-morpholine-4-ylethoxy)phenyl]-1,3-thiazole-2-yl}guanidine] and `COc1cccc(OC)c1CNC(=N)Nc1nc(-c2ccc(N3CCOCC3)cc2)cs1` [Example 65, N-(2,6-dimethoxybenzyl)-N′-[4-(4-morpholine-4-ylphenyl)-1,3-thiazole-2-yl]guanidine hydrobromide] cannot be ordered by Ki: less than 50 nM for the first, less than 50 nM for the second.

`COc1cccc(OC)c1CNC(=N)Nc1nc2c(s1)CN(S(=O)(=O)c1ccccc1)CC2` [Example 225, N-(2,6-dimethoxybenzyl)-N′-[5-(phenylsulfonyl)-4,5,6,7-tetrahydro[1,3]thiazolo[5,4-c]pyridine-2-yl]guanidine] and `COc1cccc(OC)c1CNC(=N)Nc1cc(-c2ccccc2)[nH]n1` [Example 202, N-(2,6-dimethoxybenzyl)-N′-(5-phenyl-1H-pyrazole-3-yl)guanidine] cannot be ordered by Ki: less than 50 nM for the first, less than 50 nM for the second.

`COc1ccccc1CNC(=N)Nc1cc[nH]n1` [Example 205, N-(2-methoxybenzyl)-N′-1H-pyrazole-3-ylguanidine] and `COc1ccccc1CNC(=N)Nc1ncc[nH]1` [Example 183, N-1H-imidazole-2-yl-N′-(2-methoxybenzyl)guanidine acetate] fall in the same range of Ki: 50 to 500 nM for the first, 50 to 500 nM for the second.

Going from `COc1ccccc1CNC(=N)Nc1nc(-c2ccccc2)c[nH]1` [Example 188, N-(2-methoxybenzyl)-N′-(4-phenyl-1H-imidazole-2-yl)guanidine acetate] to `COc1ccccc1CNC(=N)Nc1nc(-c2ccc(Cl)cc2)cs1` [Example 35, N-[4-(4-chlorophenyl)-1,3-thiazole-2-yl]-N′-(2-methoxybenzyl)guanidine], the Ki rises from less than 50 nM to greater than 500 nM. The first binds more tightly here.

First: COc1ccccc1CNC(=N)Nc1nc(-c2cccnc2)cs1 [Example 48, N-(2-methoxybenzyl)-N′-(4-pyridine-3-yl-1,3-thiazole-2-yl)guanidine]
Second: COc1cccc(Cl)c1CNC(=N)Nc1nc(-c2ccccn2)cs1 [Example 133, N-(2-chloro-6-methoxybenzyl)-N′-(4-pyridine-2-yl-1,3-thiazole-2-yl)guanidine]
The Ki of the first is higher: 50 to 500 nM for the first, less than 50 nM for the second.

`COc1cccc(OC)c1CNC(=N)Nc1cc(-c2ccc(Cl)cc2)[nH]n1` [Example 212, N-[5-(4-chlorophenyl)-1H-pyrazole-3-yl]-N′-(2,6-dimethoxybenzyl)guanidine] and `COc1cccc(OC)c1CNC(=N)Nc1nc(-c2ccc(F)cc2)c[nH]1` [Example 191, N-(2,6-dimethoxybenzyl)-N′-[4-(4-fluorophenyl)-1H-imidazole-2-yl]guanidine acetate] cannot be ordered by Ki: less than 50 nM for the first, less than 50 nM for the second.

`COc1cccc(OC)c1CNC(=N)Nc1nc(Cc2ccc(F)cc2)cs1` [Example 143, N-(2,6-dimethoxybenzyl)-N′-[4-(4-fluorobenzyl)-1,3-thiazole-2-yl]guanidine] and `COc1cccc(OC)c1CNC(=N)Nc1nc(-c2cccc(Cl)c2)cs1` [Example 89, N-[4-(3-chlorophenyl)-1,3-thiazole-2-yl]-N′-(2,6-dimethoxybenzyl)guanidine hydrobromide] cannot be ordered by Ki: less than 50 nM for the first, less than 50 nM for the second.

`COc1cccc(OC)c1CNC(=N)Nc1nc(-c2ncccc2Cl)cs1` [Example 164, N-[4-(3-chloropyridine-2-yl)-1,3-thiazole-2-yl]-N′-(2,6-dimethoxybenzyl)guanidine] and `COc1cccc(OC)c1CNC(=N)Nc1nc(-c2c(Cl)cccc2Cl)cs1` [Example 119, N-[4-(2,6-dichlorophenyl)-1,3-thiazole-2-yl]-N′-(2,6-dimethoxybenzyl)guanidine] cannot be ordered by Ki: less than 50 nM for the first, less than 50 nM for the second.

`COc1cccc(OC)c1CNC(=N)Nc1nc(-c2ccc3ccccc3c2)cs1` [Example 34, N-(2,6-dimethoxybenzyl)-N′-[4-(2-naphthyl)-1,3-thiazole-2-yl]guanidine] and `COc1cccc(OC)c1CNC(=N)Nc1nc(-c2ccc(-c3ccccc3)cc2)cs1` [Example 74, N-(4-biphenyl-4-yl-1,3-thiazole-2-yl)-N′-(2,6-dimethoxybenzyl)guanidine hydrobromide] cannot be ordered by Ki: less than 50 nM for the first, less than 50 nM for the second.

`COc1cccc(OC)c1CNC(=N)Nc1cc(C(C)(C)C)[nH]n1` [Example 204, N-(5-tert-butyl-1H-pyrazole-3-yl)-N′-(2,6-dimethoxybenzyl)guanidine] and `COc1cccc(Cl)c1CNC(=N)Nc1cc(C(C)(C)C)[nH]n1` [Example 213, N-(5-tert-butyl-1H-pyrazole-3-yl)-N′-(2-chloro-6-methoxybenzyl)guanidine] cannot be ordered by Ki: less than 50 nM for the first, less than 50 nM for the second.

First: COc1cccc(OC)c1CNC(=N)Nc1nc(-c2cc(Cl)cs2)cs1 [Example 124, N-[4-(4-chloro-2-thienyl)-1,3-thiazole-2-yl]-N′-(2,6-dimethoxybenzyl)guanidine]
Second: COc1cccc(Cl)c1CNC(=N)Nc1nc(-c2ccc(Cl)cn2)cs1 [Example 134, N-(2-chloro-6-methoxybenzyl)-N′-[4-(5-chloropyridine-2-yl)-1,3-thiazole-2-yl]guanidine]
The Ki of the first is lower: less than 50 nM for the first, 50 to 500 nM for the second. The first binds more tightly here.

Compared with `COc1ccccc1CNC(=N)Nc1nnc[nH]1` [Example 184, N-(2-methoxybenzyl)-N′-4H-1,2,4-triazole-3-ylguanidine acetate], `COc1cccc(OC)c1CNC(=N)Nc1nnc(C)[nH]1` [Example 181, N-(2,6-dimethoxybenzyl)-N′-(5-methyl-4H-1,2,4-triazole-3-yl)guanidine] is lower in Ki: greater than 500 nM for the first, less than 50 nM for the second.

Going from `CNC(=Nc1nccs1)NCc1ccccc1OC` [Example 24, N-(2-methoxybenzyl)-N′-methyl-N″-1,3-thiazole-2-ylguanidine (2E)-But-2-endioate] to `C=CCNC(=O)c1csc(NC(=N)NCc2c(OC)cccc2OC)n1` [Example 193, N-allyl-2-{[[(2,6-dimethoxybenzyl)amino](imino)methyl]amino}-1,3-thiazole-4-carboxamide], the Ki falls from greater than 500 nM to less than 50 nM.
